Measured values published in patent US20250177399A1, “COMBINATION THERAPIES” (MIRATI THERAPEUTICS, INC., priority 2021, published 2025).
Read-outs that look alike come from different tables or passages of the source.

Assays:
[1] = tested on: H2122 tumors; conditions: for Average Tumor Volumes of H2122 Tumor Bearing Mice: Compound 478 100 mg/kg, trametinib 1 mg/kg
Experimental: Immunocompromised nude/nude mice were inoculated in the right hind flank with cells or patient derived tumor samples harboring a KRas G12C mutation. When tumor volumes reach between 200-400 mm^3 in size, the mice were divided into four groups of 5-12 mice each. The first group was administered vehicle only. […] The fourth group was orally administered the single agent dose of the KRas G12C inhibitor in combination with the single agent dose of the MEK inhibitor at the matched schedule. […] Tumor volumes were measured using a caliper every two-three days and tumor volumes are calculated by the formula: […].
For example, twenty nude/nude mice were inoculated in the right hind limb with 5×10^6 H2122 cells.

[2] = tested on: LU99 tumors; test: LU99 tumor model, Compound 478 and RO5126766 alone and in combination; type: in vivo, nude/nude mice; conditions: for Average Tumor Volumes of LU99 Tumor Bearing Mice: p.o. daily, Compound 478 30 mg/kg
Experimental: (§1) Immunocompromised nude/nude mice were inoculated in the right hind flank with cells or patient derived tumor samples harboring a KRas G12C mutation. When tumor volumes reach between 200-400 mm^3 in size, the mice were divided into four groups of 5-12 mice each. The first group was administered vehicle only. […] The fourth group was orally administered the single agent dose of the KRas G12C inhibitor in combination with the single agent dose of the MEK inhibitor at the matched schedule. […] Tumor volumes were measured using a caliper every two-three days and tumor volumes are calculated by the formula: 0.5×(Length×Width)2.

[3] = tested on: H2122 tumors; test: H2122 tumor model, Compound 478 and RO5126766 alone and in combination; type: in vivo, nude/nude mice; conditions: Compound 478 100 mg/kg p.o daily, RO5126766 0.3 mg/kg p.o Q2D; for tumor growth inhibition: H2122 tumors, at Day 21
Experimental: as §1

[4] = tested on: SW1573 tumors; test: SW1573 tumor model, Compound 478 and RO5126766 alone and in combination; type: in vivo, nude/nude mice; conditions: Compound 478 100 mg/kg p.o daily, RO5126766 0.3 mg/kg p.o Q2D; for tumor growth inhibition: SW1573 tumors, at Day 20
Experimental: as §1

[5] = Study Day 1, RO5126766 0.3 mg/kg
[6] = Study Day 4, RO5126766 0.3 mg/kg
[7] = Study Day 9, RO5126766 0.3 mg/kg
[8] = Study Day 12, RO5126766 0.3 mg/kg
[9] = Study Day 15, RO5126766 0.3 mg/kg
[10] = Study Day 18, RO5126766 0.3 mg/kg

Row | Structure (SMILES) | Average Tumor Volumes of H2122 Tumor Bearing Mice ([1]; Study Day 1, p.o. daily) [mm^3] | Average Tumor Volumes of H2122 Tumor Bearing Mice ([1]; Study Day 7, p.o. daily) [mm^3] | Average Tumor Volumes of H2122 Tumor Bearing Mice ([1]; Study Day 21, p.o. daily) [mm^3] | Average Tumor Volumes of H2122 Tumor Bearing Mice ([1]; Study Day 24, p.o. daily) [mm^3] | Average Tumor Volumes of H2122 Tumor Bearing Mice ([1]; Study Day 32, p.o. daily) [mm^3] | Average Tumor Volumes of LU99 Tumor Bearing Mice [2, 5] [mm^3] | Average Tumor Volumes of LU99 Tumor Bearing Mice [2, 6] [mm^3] | Average Tumor Volumes of LU99 Tumor Bearing Mice [2, 7] [mm^3] | Average Tumor Volumes of LU99 Tumor Bearing Mice [2, 8] [mm^3] | Average Tumor Volumes of LU99 Tumor Bearing Mice [2, 9] [mm^3] | Average Tumor Volumes of LU99 Tumor Bearing Mice [2, 10] [mm^3] | tumor growth inhibition [3] [%] | Average Tumor Volumes of H2122 Tumor Bearing Mice ([3]; Study Day 0) [mm^3] | Average Tumor Volumes of H2122 Tumor Bearing Mice ([3]; Study Day 2) [mm^3] | Average Tumor Volumes of H2122 Tumor Bearing Mice ([3]; Study Day 7) [mm^3] | Average Tumor Volumes of H2122 Tumor Bearing Mice ([3]; Study Day 9) [mm^3] | Average Tumor Volumes of H2122 Tumor Bearing Mice ([3]; Study Day 14) [mm^3] | Average Tumor Volumes of H2122 Tumor Bearing Mice ([3]; Study Day 17) [mm^3] | tumor growth inhibition [4] [%] | Average Tumor Volumes of SW1573 Tumor Bearing Mice ([4]; Study Day 0) [mm^3] | other results
1 | C=C(F)C(=O)N1CCN(c2nc(OC[C@@H]3CCCN3C)nc3c2CCN(c2cccc4cccc(Cl)c24)C3)C[C@@H]1CC#N [Compound 478] | 315 | 233 | 270 | 254 | 287 | 228.8452 | 282.5161 | 219.8962 | 252.5981 | 416.0955 | 495.1032 | 91 | 213.447 | 229.5648 | 285.0973 | 326.5344 | 319.1401 | 378.2042 | 52 | 145.1243 | tumor growth regression ([1]; H2122 tumors, day not given, Compound 478 100 mg/kg p.o. daily): 12%; Average Tumor Volumes of H2122 Tumor Bearing Mice ([1]; Study Day 35, p.o. daily): 305 mm^3; Average Tumor Volumes of H2122 Tumor Bearing Mice ([1]; Study Day 38, p.o. daily): 324 mm^3; Average Tumor Volumes of H2122 Tumor Bearing Mice ([1]; Study Day 42, p.o. daily): 353 mm^3; Average Tumor Volumes of H2122 Tumor Bearing Mice ([1]; Study Day 45, p.o. daily): 378 mm^3; Average Tumor Volumes of H2122 Tumor Bearing Mice ([1]; Study Day 49, p.o. daily): 337 mm^3; Average Tumor Volumes of H2122 Tumor Bearing Mice ([1]; Study Day 56, p.o. daily, dosing stopped on day 56): 371 mm^3; Average Tumor Volumes of H2122 Tumor Bearing Mice ([1]; Study Day 63, after dosing stopped on day 56): 542 mm^3; Average Tumor Volumes of H2122 Tumor Bearing Mice ([1]; Study Day 70, after dosing stopped on day 56): 802 mm^3; Average Tumor Volumes of H2122 Tumor Bearing Mice ([1]; Study Day 77, after dosing stopped on day 56): 1073 mm^3; Average Tumor Volumes of H2122 Tumor Bearing Mice ([1]; Study Day 85, after dosing stopped on day 56): 1294 mm^3; tumor growth inhibition ([2]; LU99 tumors, Day 18, Compound 478 30 mg/kg p.o. daily): 81%; Average Tumor Volumes of SW1573 Tumor Bearing Mice ([4]; Study Day 3): 201.0648 mm^3; Average Tumor Volumes of SW1573 Tumor Bearing Mice ([4]; Study Day 7): 253.1608 mm^3; Average Tumor Volumes of SW1573 Tumor Bearing Mice ([4]; Study Day 10): 365.7683 mm^3; Average Tumor Volumes of SW1573 Tumor Bearing Mice ([4]; Study Day 13): 394.367 mm^3; Average Tumor Volumes of SW1573 Tumor Bearing Mice ([4]; Study Day 17): 486.729 mm^3; Average Tumor Volumes of SW1573 Tumor Bearing Mice ([4]; Study Day 20): 534.3942 mm^3
2 | CNS(=O)(=O)Nc1nccc(Cc2c(C)c3ccc(Oc4ncccn4)cc3oc2=O)c1F [RO5126766, 3-[[3-fluoro-2-(methylsulfamoylamino)pyridin-4-yl]methyl]-4-methyl-7-pyrimidin-2-yloxychromen-2-one, reference compound] |  |  |  |  |  | 232.1134 | 247.33 | 158.14 | 126.8378 | 181.1358 | 200.6461 | 59 | 212.4101 | 327.3898 | 463.4062 | 474.4923 | 504.5922 | 576.573 | 51 | 249.5609 | tumor regression ([2]; LU99 tumors, at Day 18, RO5126766 0.3 mg/kg, Compound 478 30 mg/kg p.o. daily): 12%; Average Tumor Volumes of H2122 Tumor Bearing Mice ([3]; Study Day 21): 772.6155 mm^3; Average Tumor Volumes of SW1573 Tumor Bearing Mice ([4]; Study Day 3): 280.2067 mm^3; Average Tumor Volumes of SW1573 Tumor Bearing Mice ([4]; Study Day 7): 299.7596 mm^3; Average Tumor Volumes of SW1573 Tumor Bearing Mice ([4]; Study Day 10): 395.0633 mm^3; Average Tumor Volumes of SW1573 Tumor Bearing Mice ([4]; Study Day 13): 458.1809 mm^3; Average Tumor Volumes of SW1573 Tumor Bearing Mice ([4]; Study Day 17): 469.133 mm^3; Average Tumor Volumes of SW1573 Tumor Bearing Mice ([4]; Study Day 20): 480.1852 mm^3
3 | CC(=O)Nc1cccc(-n2c(=O)n(C3CC3)c(=O)c3c(Nc4ccc(I)cc4F)n(C)c(=O)c(C)c32)c1 [Trametinib, N-(3-(3-cyclopropyl-5-((2-fluoro-4-iodophenyl)amino)-6,8-dimethyl-2,4,7-trioxo-3,4,6,7-tetrahydropyrido[4,3-d]pyrimidin-1 (2H)-yl)phenyl) acetamide, reference compound] | 301 | 447 | 667 | 778 | 816 |  |  |  |  |  |  |  |  |  |  |  |  |  |  |  | tumor growth inhibition ([1]; H2122 tumors, at Day 32, trametinib 1 mg/kg p.o. daily): 60%; Average Tumor Volumes of H2122 Tumor Bearing Mice ([1]; Study Day 3, p.o. daily): 385 mm^3; Average Tumor Volumes of H2122 Tumor Bearing Mice ([1]; Study Day 10, p.o. daily): 462 mm^3; Average Tumor Volumes of H2122 Tumor Bearing Mice ([1]; Study Day 15, p.o. daily): 534 mm^3; Average Tumor Volumes of H2122 Tumor Bearing Mice ([1]; Study Day 17, p.o. daily): 582 mm^3; Average Tumor Volumes of H2122 Tumor Bearing Mice ([1]; Study Day 28, p.o. daily): 673 mm^3
